According to patent publication US20090325877A1, “Combination Product of Receptor Tyrosine Kinase Inhibitor and Fatty Acid Synthase Inhibitor for Treating Cancer” (Wyeth, priority 2008, published 2009):
≈ marks a conversion by molar mass, not a printed value. Entries after “also recorded” stand apart in the source; their conditions may differ. Where two headings read alike, the source gives them in different places.

Assays:
EGFR mRNA = EGFR mRNA by qRT-PCR in SKBR3 breast cancer cells; format: cell-based; conditions: Homo sapiens, SK-BR-3, read-out: IC50, down-regulation of EGFR mRNA
From the text: RNA was extracted from the cells using TRI-REAGENT™ (Molecular Research Center, Cincinnati, Ohio) and subjected to reverse transcription—polymerase chain reaction (“RT-PCR”) using the TITAN ONE TUBE RT-PCR KIT™ system (Hoffmann-La Roche). Primers were: EGFR: 5′-[…]-3′ (SEQ ID NO:1) (forward, E1S) 5′-[…]-3′ (SEQ ID NO:2) (reverse, E1A); ErbB-2: 5′-[…]-3′ (SEQ ID NO:3) (forward, E2S2), 5′-[…]-3′ (SEQ ID NO:4) (reverse, E2A2); GAPDH: 5′-[…]-3′ (SEQ ID NO:5) (forward, GAPDH3S), 5′-[…]-3′ (SEQ ID NO:6) (reverse, GAPDH3A). Conditions for reverse transcription and amplification of the EGFR coding sequence were: 50° C., 30 minutes; 94° C., 2 minutes; 10 cycles (94° C., 30 seconds; 64.9° C., 30 seconds; 68° C., 90 seconds); 30 cycles (94° C., 30 seconds; 64.9° C., 30 seconds; 68° C., 90 seconds +5 seconds autoextension) and 68° C., 7 minutes. […]
(§1) Quantitative RT-PCR (“qRT-PCR”) was performed in the ABI PRISM 7000™ Sequence Detector (Applied Biosystems, Foster City, Calif.) using human EGFR, ErbB2, and FASN TaqMan® Gene Expression Assay systems (Applied Biosystems; Assay IDs: Hs00193306_m1, Hs00170433_m1, Hs00188012_m1) according to the manufacturer's instructions. β-actin and GAPDH (VIC™ and FAM labeled pre-developed TaqMan® Assay reagents, Applied Biosystems) were used as endogenous controls. EGFR, ErbB2, and FASN mRNA expression were calculated as described previously (Grunt, ibid).

ERK1/2 = ERK1/2 phosphorylation and expression by Western blotting in A2780 and SKOV3 cells; format: cell-based
Procedure: (§2) Cells plated in culture media containing 5% fetal calf serum at a density of 2.6×10^5 (SKOV3) or 6×10^5 (A2780) in 60 mm dishes (Corning, Corning, N.Y.) were treated with FASN inhibitor C75, with small-molecule ErbB RTK inhibitors (RTKIs), with the MEK1/2 antagonist U0126 or with the PI3K inhibitor LY294002 for the indicated times and at various concentrations. In some experiments cells were stimulated for 5 or 10 min with 100 ng/ml EGF (Sigma) before lysis in RIPA buffer (Grunt et al., Biochem Biophys Res Commun 329:1253-1259, 2005). Proteins (20 μg/lane) were subjected to SDS-PAGE, blotted onto PVDF membranes and immunostained (see Grunt, ibid) using the following antibodies: 2 μg/ml goat anti-pEGFR(Tyr1173) (sc-12351), 1 μg/ml rabbit anti-ErbB2 (C-18) (sc-284), 1 μg/ml rabbit anti-pErbB2(Tyr1248) (sc-12352-R) (all from Santa Cruz Biotechnology Inc., Santa Cruz, Calif.), rabbit anti-EGFR 1:1,000 (2232), rabbit anti-AKT 1:1,000 (9272), rabbit anti-pAKT(Ser473) 1:1,000 (9271), rabbit anti-pAKT(Thr308) 1:1,000 (9275), rabbit anti-pERK1/2(Thr202/Tyr204) 1:1,000 (9101) (all from Cell Signaling Technology), rabbit anti-ERK1/2 1:3,000 (06-182, Upstate Biotechnology Inc., Lake Placid, N.Y.), 0.5 μg/ml mouse monoclonal anti-FASN (610963, BD Biosciences, San Jose, Calif.), or 0.67 μg/ml goat anti-human actin (1-19, sc-1616, Santa Cruz Biotechnology). […]

AKT = AKT phosphorylation and expression by Western blotting in A2780 and SKOV3 cells; format: cell-based
Procedure: as §2

FASN mRNA = FASN mRNA expression by qRT-PCR in A2780 cells; format: cell-based, human
From the text: (§3) RNA was extracted from the cells using TRI-REAGENT™ (Molecular Research Center, Cincinnati, Ohio) and subjected to reverse transcription—polymerase chain reaction (“RT-PCR”) using the TITAN ONE TUBE RT-PCR KIT™ system (Hoffmann-La Roche). Primers were: EGFR: 5′-[…]-3′ (SEQ ID NO:1) (forward, E1S) 5′-[…]-3′ (SEQ ID NO:2) (reverse, E1A); ErbB-2: 5′-[…]-3′ (SEQ ID NO:3) (forward, E2S2), 5′-[…]-3′ (SEQ ID NO:4) (reverse, E2A2); GAPDH: 5′-[…]-3′ (SEQ ID NO:5) (forward, GAPDH3S), 5′-[…]-3′ (SEQ ID NO:6) (reverse, GAPDH3A). Conditions for reverse transcription and amplification of the EGFR coding sequence were: 50° C., 30 minutes; 94° C., 2 minutes; 10 cycles (94° C., 30 seconds; 64.9° C., 30 seconds; 68° C., 90 seconds); 30 cycles (94° C., 30 seconds; 64.9° C., 30 seconds; 68° C., 90 seconds +5 seconds autoextension) and 68° C., 7 minutes. Conditions for ErbB2 and GAPDH were: 50° C., 30 minutes; 94° C., 2 minutes; 10 cycles (94° C., 30 seconds; 51° C., 30 seconds; 68° C., 45 seconds); 25 cycles (94° C., 30 seconds; 51° C., 30 seconds; 68° C., 45 seconds +5 seconds autoextension) and 68° C., 7 minutes. DNA products had the following sizes: EGFR: 1452 bp, ErbB2: 900 bp, GAPDH: 488 bp. Fragments were electrophoresed and stained with ethidium bromide.
as §1

EGFR protein = EGFR protein and tyrosine phosphorylation by Western blot in A2780 cells; format: cell-based
FASN protein = FASN protein level by Western blotting in A2780 cells; format: cell-based
[1] = tested on: A2780 ovarian cancer cells; test: Formazan dye (MTT) in-vitro cell growth assay, A2780; format: cell-based; conditions: for IC50: Homo sapiens, 72 h
Procedure: Effect of FAS and ErbB inhibition on A2780 ovarian cancer cells (OCC). […] Cells were grown for three days in the presence of vehicle (0.1% DMSO) or synthetic inhibitor before cell number was estimated. Data in the charts represent means +/−SD of triplicate measurements.
Cells were plated at 0.5−5×10^3/well in 96-well plates. After adhesion, media ±drugs alone or in combination were added. Cell numbers were estimated after 3-5 days by using a colorimetric formazan dye assay (Biomedica, Vienna, Austria). Results (mean±SD, n=3) were expressed in percent of untreated (solvent) control. Statistical analysis of data from drug combination treatment experiments was performed using one-factorial ANOVA followed by Scheffe-test.
Yellow MTT (3-(4,5-Dimethylthiazol-2-yl)-2,5-diphenyltetrazolium bromide, a tetrazole) is reduced to purple formazan in the mitochondria of living cells (see Mosmann, T., J. Immunol. Methods, 65(1-2): 55-63, 1983).

ErbB2 mRNA = ErbB2 mRNA by RT-PCR and qRT-PCR in A2780 cells; format: cell-based, human
From the text: as §3, §1

[2] = b102: within three days, pelitinib at doses as low as 3 μM

- IC50 (EGFR mRNA): 7.5 µg/mL (≈ 29.5 µM)
- IC50 (FASN mRNA; Homo sapiens, 72 h, after 3 days, qRT-PCR, read-out: IC50, down-regulation of FASN mRNA expression): 5.25 µg/mL (≈ 20.6 µM)
- IC50 (EGFR protein; Homo sapiens, Western blot): 3.6 µg/mL (≈ 14.2 µM)
- IC50 (FASN protein; Homo sapiens, read-out: IC50, down-regulation of FASN protein): 4.15 µg/mL (≈ 16.3 µM)
- IC50 ([1]; A2780 OCC, each individual inhibitor, 50% reduction of cell growth, three days, n = 3-5, read-out: IC50 (μM) Mean +/− SD): 21.9 µM
- IC50 ([1]; A2780 ovarian cancer cells, grown three days with inhibitor, read-out: IC50, growth of OCC (MTT assay)): 22 µM
SMILES: C=C1C(=O)OC(CCCCCCCC)C1C(=O)O (centres unmarked) [C75, tetrahydro-3-methylene-2-oxo-5-n-octyl-4-furancarboxylic acid]
- pERK1/2 levels, effect in words (ERK1/2): dose-dependently increase
- total ERK1/2 levels, effect in words (ERK1/2): concurrently decline
- phosphorylation of AKT (Ser473, Thr308), effect in words (AKT): dose-dependently inhibits
- total AKT protein level, effect in words (AKT; C75 at high concentrations): slightly affects
- IT50 (time of exposure after which a 50% inhibition is obtained), FASN mRNA (FASN mRNA; at 7 μg/ml): 21.5 h
- FASN mRNA expression, effect in words (FASN mRNA; [2]): shut-down
- EGFR total protein, effect in words (EGFR protein): slowly and concordantly reduces
- EGFR tyrosine phosphorylation (activity), effect in words (EGFR protein): slowly and concordantly reduces
- IT50, EGFR phosphorylation (EGFR protein): 20 h
- IT50, EGFR protein (EGFR protein): 29 h
- IT50, FASN protein (FASN protein): 40 h
- FASN protein expression, effect in words (FASN protein; [2]): shut-down
- in vitro growth inhibition (in words) ([1]; A2780, MTT assay, single drug): growth inhibitory activity
- ErbB2 mRNA, effect in words (ErbB2 mRNA): not affected; also recorded: failed to diminish
